Counter-ions that a name gives are not always drawn.

This series can be described thus: room-temperature solubility in toluene. It is filed as physicochemical. As to conditions: organic solvent or mixture, 1-naphthalene sulfonate counterion.

For orientation: solubility means the dissolved amount per volume that the medium holds. Consider `C=CC[C@@]1(C)C[C@H](c2cccc(Cl)c2)[C@@H](c2ccc(Cl)cc2)[N+]2=C1OC[C@@H]2C(C)C` [oxoiminium salt, (3S,5S,6R,8S)-8-Allyl-6-(3-chlorophenyl)-5-(4-chlorophenyl)-3-isopropyl-8-methyl-2,3,5,6,7,8-hexahydrooxazolo[3,2-a]pyridin-4-ium naphthalene-1-sulfonate], for which the solubility is under 10000 µg/mL.

(Values after patent publication US9855259B2, “Processes of making and crystalline forms of a MDM2 inhibitor” (AMGEN INC., priority 2013, dated 2018).)
